Entries after “also recorded” stand apart in the source; their conditions may differ.
Tested on: NA activity of A(H1N1)pdm09 viruses with the H275Y substitution
Type: biochemical, influenza A(H1N1)pdm09 virus

[H]/N=C(\N)N[C@H]1C=C(C(=O)O)O[C@@H]([C@H](OC)[C@H](O)CO)[C@@H]1NC(C)=O [laninamivir]
IC50 values of H275Y mutants relative to those of viruses with 275H: comparable
resistance / sensitivity of H275Y mutant viruses to the NA inhibitor: sensitive

CCC(CC)O[C@@H]1C=C(C(=O)O)C[C@H](N)[C@H]1NC(C)=O [oseltamivir, oseltamivir carboxylate]
fold increased IC50 values (decreased susceptibility) of H275Y mutant viruses compared with 275H: about 400 fold
resistance / sensitivity of H275Y mutant viruses to the NA inhibitor: resistance; also recorded: resistant

CCC(CC)[C@H](NC(C)=O)[C@@H]1[C@H](O)[C@@H](C(=O)O)C[C@H]1N=C(N)N [peramivir]
fold increased IC50 values (decreased susceptibility) of H275Y mutant viruses compared with 275H: ~140 fold
resistance / sensitivity of H275Y mutant viruses to the NA inhibitor: resistance; also recorded: resistant

CC(=O)N[C@H]1[C@H]([C@H](O)[C@H](O)CO)OC(C(=O)O)=C[C@@H]1N=C(N)N [zanamivir]
IC50 values of H275Y mutants relative to those of viruses with 275H: comparable
resistance / sensitivity of H275Y mutant viruses to the NA inhibitor: sensitive
